The values below come from patent US10195185B2, “3-(1H-imidazo[4,5-C]pyridin-2-yl)-1H-pyrazolo[4,3-B]pyridines and therapeutic uses thereof” (Samumed, LLC, priority 2015, dated 2019).

The test system of assay [1] is IL-6 in human monocyte cell line (THP-1 cells). Briefly: IL-6 inhibition in LPS-stimulated THP-1 cells (HTRF). The assay is classed as cell-based. The following applies: IL-6 in LPS-stimulated THP-1 cells; for EC50: HTRF; for inhibition at 10 µM: read-out: percent inhibition in brackets beside EC50 >10 μM. Put shortly:
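Readout is the 665/620 nm HTRF ratio for secreted IL-6, normalized to DMSO wells, with EC50 from a variable-slope four-parameter fit, or % inhibition at 10 μM when above 10 μM. Cells (1% FBS, 24 h beforehand) got compound for 2 h, then LPS 500 ng/mL for 22 h at 37° C; top dose 10 μM, 0.1% DMSO.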

The subject of assay [2] is Primary human fibroblasts derived from IPF patients (LL29 cells) treated with TGF-β1. Kind of assay: Inhibition of the fibrotic process: αSMA staining in TGF-β1 treated fibroblasts. It is filed as cell-based. Particulars: Fibroblast, 96 h, LL29 fibroblasts treated with TGF-β1, 4 days; for inhibition at 10 µM: read-out: percent inhibition in brackets beside EC50 >10 μM. In outline:
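EC50 values come from non-linear fits of the αSMA-positive percentage among SYTOX-excluded live cells, normalized to TGF-β1 plus DMSO controls, or appear as % inhibition at 10 μM when above 10 μM. Fibrosis was induced in IPF-derived LL29 fibroblasts by 20 ng/mL TGF-β1 over 4 days, with 1:2 compound dilutions from 10 μM.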

The structures appear in SMILES notation.

One may read the EC50 as the concentration at which the effect is half-maximal. Consider `CC(C)Nc1cncc(-c2ccc3[nH]nc(-c4nc5c(-c6cccnc6)nccc5[nH]4)c3n2)c1` [Compound 96, N-Isopropyl-5-(3-(4-(pyridin-3-yl)-1H-imidazo[4,5-c]pyridin-2-yl)-1H-pyrazolo[4,3-b]pyridin-5-yl)pyridin-3-amine], for which the EC50 in assay [1] is 2.75 µM; in assay [2] it was 1.25 µM.
A word on the inhibition: it is the relative decrease from the control value, in per cent. Turning to `Cc1ccncc1-c1ccc2[nH]nc(-c3nc4c(-c5ccncc5)nccc4[nH]3)c2n1` [Compound 117, 5-(4-Methylpyridin-3-yl)-3-(4-(pyridin-4-yl)-1H-imidazo[4,5-c]pyridin-2-yl)-1H-pyrazolo[4,3-b]pyridine], the EC50 in assay [1] and in assay [2] was above 10 µM throughout. Besides, the inhibition at 10 µM in assay [1] amounted to 33.1%; in assay [2] it was 0%.
Take `O=C(Cc1ccccc1)Nc1cncc(-c2ccc3[nH]nc(-c4nc5c(-c6ccncc6)nccc5[nH]4)c3n2)c1` [Compound 122, 2-phenyl-N-(5-(3-(4-(pyridin-4-yl)-1H-imidazo[4,5-c]pyridin-2-yl)-1H-pyrazolo[4,3-b]pyridin-5-yl)pyridin-3-yl)acetamide]: the midpoint of the response in assay [1], the EC50, lay at 1.24 µM. Moreover, in assay [2], the EC50 is above 10 µM and the inhibition at 10 µM was determined as 0%.
Turning to `CCCC(=O)Nc1cncc(-c2ccc3[nH]nc(-c4nc5c(-c6ccncc6)nccc5[nH]4)c3n2)c1` [Compound 129, N-(5-(3-(4-(Pyridin-4-yl)-1H-imidazo[4,5-c]pyridin-2-yl)-1H-pyrazolo[4,3-b]pyridin-5-yl)pyridin-3-yl)butyramide], the EC50 in assay [1] and in assay [2] was above 10 µM throughout. In addition, the inhibition at 10 µM in assay [1] turned out to be 12.5%; in assay [2] it was 0%.
With `c1cc(-c2ccc3[nH]nc(-c4nc5c(-c6ccncc6)nccc5[nH]4)c3n2)ccn1` [Compound 130, 5-(pyridin-4-yl)-3-(4-(pyridin-4-yl)-1H-imidazo[4,5-c]pyridin-2-yl)-1H-pyrazolo[4,3-b]pyridine], the EC50 in assay [1] is 0.203 µM. In assay [2], the EC50 is above 10 µM and the inhibition at 10 µM is 15.3%.
Consider `O=C(Nc1cncc(-c2ccc3[nH]nc(-c4nc5c(-c6ccncc6)nccc5[nH]4)c3n2)c1)C1CCCCC1` [Compound 135, N-(5-(3-(4-(pyridin-4-yl)-1H-imidazo[4,5-c]pyridin-2-yl)-1H-pyrazolo[4,3-b]pyridin-5-yl)pyridin-3-yl)cyclohexanecarboxamide], for which the 50% effective concentration (EC50) in assay [1] and in assay [2] was above 10 µM throughout. The inhibition at 10 µM in assay [1] was determined as 33.2%; in assay [2], 0%.
`CCNCc1cncc(-c2ccc3[nH]nc(-c4nc5c(-c6ccccn6)nccc5[nH]4)c3n2)c1` [Compound 146, N-((5-(3-(4-(Pyridin-2-yl)-1H-imidazo[4,5-c]pyridin-2-yl)-1H-pyrazolo[4,3-b]pyridin-5-yl)pyridin-3-yl)methyl)ethanamine]: in assay [1], the EC50 was above 10 µM and the inhibition at 10 µM is 6.7%. In assay [2], this compound had a concentration for a half-maximal effect (EC50) of 1.04 µM.
As for `O=C(Nc1cncc(-c2ccc3[nH]nc(-c4nc5c(-c6ccccn6)nccc5[nH]4)c3n2)c1)c1ccccc1` [Compound 151, N-(5-(3-(4-(Pyridin-2-yl)-1H-imidazo[4,5-c]pyridin-2-yl)-1H-pyrazolo[4,3-b]pyridin-5-yl)pyridin-3-yl)benzamide], the EC50 in assay [1] and in assay [2] was above 10 µM in each case. In addition, the inhibition at 10 µM in assay [1] was determined as 28.9%; in assay [2] it was 0%.
With `CCCCC(=O)Nc1cncc(-c2ccc3[nH]nc(-c4nc5c(-c6ccccn6)nccc5[nH]4)c3n2)c1` [Compound 159, N-(5-(3-(4-(Pyridin-2-yl)-1H-imidazo[4,5-c]pyridin-2-yl)-1H-pyrazolo[4,3-b]pyridin-5-yl)pyridin-3-yl)pentanamide], in assay [1], the EC50 is above 10 µM and the inhibition at 10 µM amounted to 28.2%. The half-maximal effective concentration (EC50) in assay [2] turned out to be 4.04 µM.
For `CCC(=O)Nc1cncc(-c2ccc3[nH]nc(-c4nc5c(N6CCCCC6)nccc5[nH]4)c3n2)c1` [Compound 169, N-(5-(3-(4-(Piperidin-1-yl)-1H-imidazo[4,5-c]pyridin-2-yl)-1H-pyrazolo [4,3-b]pyridin-5-yl)pyridin-3-yl)propionamide], in assay [1], the concentration giving a half-maximal response (EC50) was above 10 µM and the inhibition at 10 µM was 42.6%. In assay [2], this compound registered an EC50 of 7.89 µM.
As to `CN(C)c1cncc(-c2ccc3[nH]nc(-c4nc5c(N6CCCCC6)nccc5[nH]4)c3n2)c1` [Compound 175, N,N-Dimethyl-5-(3-(4-(piperidin-1-yl)-1H-imidazo[4,5-c]pyridin-2-yl)-1H-pyrazolo [4,3-b]pyridin-5-yl)pyridin-3-amine], the values for the EC50 in assay [1] and in assay [2] were above 10 µM and 2.4 µM, respectively. For the same compound, the inhibition at 10 µM in assay [1] was determined as 0%.
For the compound `CN(C)Cc1cncc(-c2ccc3[nH]nc(-c4nc5c(N6CCCCC6)nccc5[nH]4)c3n2)c1` [Compound 181, N,N-Dimethyl-1-(5-(3-(4-(piperidin-1-yl)-1H-imidazo[4,5-c]pyridin-2-yl)-1H-pyrazolo [4,3-b]pyridin-5-yl)pyridin-3-yl)methanamine], in assay [1], the concentration for a half-maximal effect (EC50) was above 10 µM and the inhibition at 10 µM was 36.5%. In assay [2], the response was half-maximal at 4.05 µM (EC50).
As for `O=C(Nc1cncc(-c2ccc3[nH]nc(-c4nc5c(N6CCCCC6)nccc5[nH]4)c3n2)c1)C1CC1` [Compound 188, N-(5-(3-(4-(Piperidin-1-yl)-1H-imidazo[4,5-c]pyridin-2-yl)-1H-pyrazolo [4,3-b]pyridin-5-yl)pyridin-3-yl)cyclopropanecarboxamide], in assay [1], the concentration giving a half-maximal response (EC50) was above 10 µM and the inhibition at 10 µM was 15.9%. Moreover, in assay [2], the concentration giving a half-maximal response (EC50) is above 10 µM and the inhibition at 10 µM came out at 0%.
On to `Cc1cn(-c2nccc3[nH]c(-c4n[nH]c5ccc(-c6cncc(NC(=O)CC(C)C)c6)nc45)nc23)cn1` [Compound 198], for which, in assay [1], the half-maximal effective concentration (EC50) was above 10 µM and the inhibition at 10 µM is 25.2%. In assay [2], the EC50 was above 10 µM and the inhibition at 10 µM came out at 4.5%.
Regarding `Cc1cn(-c2nccc3[nH]c(-c4n[nH]c5ccc(-c6cncc(NC(=O)C(C)(C)C)c6)nc45)nc23)cn1` [Compound 204, N-(5-(3-(4-(4-Methyl-1H-imidazol-1-yl)-1H-imidazo[4,5-c]pyridin-2-yl)-1H-pyrazolo[4,3-b]pyridin-5-yl)pyridin-3-yl)pivalamide], in assay [1], the concentration giving a half-maximal response (EC50) was above 10 µM and the inhibition at 10 µM worked out at 41.8%. In assay [2], the EC50 is above 10 µM and the inhibition at 10 µM worked out at 8.1%.
On to `Cc1cn(-c2nccc3[nH]c(-c4n[nH]c5ccc(-c6cncc(CN7CCCC7)c6)nc45)nc23)cn1` [Compound 210, 3-(4-(4-Methyl-1H-imidazol-1-yl)-1H-imidazo[4,5-c]pyridin-2-yl)-5-(5-(pyrrolidin-1-ylmethyl)pyridin-3-yl)-1H-pyrazolo [4,3-b]pyridine], for which the EC50 in assay [1] and in assay [2] was above 10 µM in each case. In addition, the results for the inhibition at 10 µM in assay [1] and in assay [2] were 24.5% and 2.9%, respectively.
Turning to `CN1CCN(c2nccc3[nH]c(-c4n[nH]c5ccc(-c6cncc(N)c6)nc45)nc23)CC1` [Compound 227, 5-(3-(4-(4-Methylpiperazin-1-yl)-1H-imidazo[4,5-c]pyridin-2-yl)-1H-pyrazolo[4,3-b]pyridin-5-yl)pyridin-3-amine], in assay [1], the half-maximal effective concentration (EC50) is above 10 µM and the inhibition at 10 µM stood at 32.3%. Also, in assay [2], the EC50 is above 10 µM and the inhibition at 10 µM is 22.5%.
